Six compounds from US9067898B1, “Isothiazole derivatives as GPR120 agonists for the treatment of type II diabetes” (Janssen Pharmaceutica NV, priority 2014, dated 2015) can be followed below.

Test [1] deals with T1, Human GPR120 short form (Homo sapiens, UniProt Q5NUL3).
T1 construct: expressed in transfected cells
T1 sequence (Q5NUL3 1-361): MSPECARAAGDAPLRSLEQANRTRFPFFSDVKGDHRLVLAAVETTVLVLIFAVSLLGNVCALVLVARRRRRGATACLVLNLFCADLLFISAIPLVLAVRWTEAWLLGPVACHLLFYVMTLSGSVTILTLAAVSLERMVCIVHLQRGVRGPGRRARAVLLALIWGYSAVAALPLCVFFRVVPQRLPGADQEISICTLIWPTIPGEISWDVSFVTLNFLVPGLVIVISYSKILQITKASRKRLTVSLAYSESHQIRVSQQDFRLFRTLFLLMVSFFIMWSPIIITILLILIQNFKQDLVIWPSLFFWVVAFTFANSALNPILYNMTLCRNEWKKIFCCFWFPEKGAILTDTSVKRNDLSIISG
Description: Human GPR120 calcium flux assay (FLIPR), Procedure Calcium B. Format: cell-based. Particulars: HEK-293 cells expressing human GPR120 short form, 4200 cells/well; read-out: GPR120 Ca2+ Assay B EC50. The source says:
This in vitro assay serves to assess test compound agonist activity against the short splice variant (SVS with Accession number NM_001195755.1 confirmed by sequencing data) of the GPR120 receptor. The Human Short splice variant #2 (NM_001195755.1) is missing an in-frame coding exon compared to variant 1 (the Human Long splice variant NM_181745.3), resulting in a shorter isoform (GPR120-S) lacking a 16 aa protein segment compared to isoform GPR120-L. The assay platform utilizes HEK-293 cells stably transfected to express the Human GPR120 short form. These cells are first loaded with the Ca^+2 sensitive dye, Fluo-4 NW. Upon stimulation, intracellular released Ca^+2 can bind to the dye and alter its fluorescence intensity. This increase in fluorescence signal, and thus the flux in intracellular [Ca^2+], is detected and quantitated by fluorescence imaging using a FLIPR reader. The effect of the agonist is measured as a function of concentration and used to calculate an EC50 based upon a response curve.
In this procedure 4200 cells/well were employed.
A Human GPR120 clone (Genbank accession number NM_001195755.1) was placed into the pcDNA3.1 mammalian expression vector carrying the neomycin resistance gene. A stable mammalian cell was generated by placing the above clone into a HEK293 background. Clonal cells responding to long chain fatty acids had expression levels of GPR120 confirmed by RT-qPCR. Human HEK-GPR120 cells were cultured in Dulbecco's Modified Eagle's Medium (DMEM)/F12 medium supplemented with 10% fetal bovine serum (FBS), 1% L-Glutamine and 1% penicillin/streptomycin and 0.5 mg/ml G-418. Cells were split 2 times a week to keep the cells in the log-phase growth.
In preparation for the assay, HEK cells stably transfected with Human GPR120 (2.5K cells per well in 25 uL growth medium) were seeded into 384-well plates and then incubated overnight (37° C., 5% CO2). The next day, the media was changed to 20 μL assay buffer and the cell starved for 1 h at 37° C. The dye loading solution (2× dye) was prepared using 10 mL assay buffer, 100 μL of 250 mM probenecid, 1 bottle of Component A, and 20 μl of dye in DMSO. Twenty μL of the 2× dye loading buffer was then added to each well. The plates were incubated at 37° C. for 30 min, then at room temperature for an additional 15 minutes, before performing the assay on FLIPR. Test compounds were prepared in assay buffer (2 uL of cpd+198 uL assay buffer, final DMSO in assay plate is 0.2%) at the desired concentration, more particularly at 100, 50, 25, 12.5, 6.25, 3.125, 1.562, 0.781, 0.391, 0.195, 0.098, 0.049, 0.024 and 0.012 μM.
The assay was performed on a FLIPR plate reader using the following parameters. Baseline was read for 10 seconds at 1 sec intervals. The program was set to transfer 10 μL of ligand from compound plate to cell plate after baseline reading. Aspiration was executed at: 10 μL/sec speed, 4.6 μL height; Dispensing was executed at: 30 μL/sec speed, 45 μL height. After compound addition, each well was read for 300 sec, with measurements collected at 1 sec intervals.
The kinetic data from the FLIPR was based upon a 5 minute window for data collection. The fluorescence of each sample well was used for individual calculations of a normalized RFU value, which was defined as maximum response minus the minimum response. The normalized fluorescence reading (RFU) was calculated as follows: RFU=Fmax−Fmin The data were fitted to a sigmoidal dose-response curve with a variable Hill slope (<2) using nonlinear regression with GraphPad Prism 5.0 to calculate the EC50 values. The Fitting Equation was: Y=Bottom+(Top−Bottom)/(1+10^((Log EC50−X)*HillSlope)), where X is the log of the concentration and Y is the response.

The target of test [2] is T2, short form of the GPR120 receptor (GPR120S) (Homo sapiens, UniProt Q5NUL3).
T2 construct: host or cells: PathHunter CHO-K1 GPR120S β-Arrestin Cell Line
The test can be described thus: Human GPR120 DiscoveRx PathHunter Beta-Arrestin assay, Procedure β-arrestin B. Format: cell-based. Particulars: PathHunter CHO-K1 GPR120S β-Arrestin cell line, 5000 cells/well, read-out: hGPR120 β-arrestin B EC50. In short, it runs like this: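 PathHunter CHO-K1 β-arrestin cells expressed long-form GPR120 (Procedure A, 3000 cells/well) or short-form GPR120 (Procedure B, 5000 cells/well). Compounds were serially diluted from 25 µM and incubated 90 min at 37 °C in HBSS/20 mM HEPES/0.1% BSA, pH 7.4. Luminescence was read after 60 min detection at RT; EC50 comes from % activity versus positive control, Hill slope fixed at 1.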

Molecules are shown by their SMILES.

T2 sequence (P32121 whole entry partner, one chain of several): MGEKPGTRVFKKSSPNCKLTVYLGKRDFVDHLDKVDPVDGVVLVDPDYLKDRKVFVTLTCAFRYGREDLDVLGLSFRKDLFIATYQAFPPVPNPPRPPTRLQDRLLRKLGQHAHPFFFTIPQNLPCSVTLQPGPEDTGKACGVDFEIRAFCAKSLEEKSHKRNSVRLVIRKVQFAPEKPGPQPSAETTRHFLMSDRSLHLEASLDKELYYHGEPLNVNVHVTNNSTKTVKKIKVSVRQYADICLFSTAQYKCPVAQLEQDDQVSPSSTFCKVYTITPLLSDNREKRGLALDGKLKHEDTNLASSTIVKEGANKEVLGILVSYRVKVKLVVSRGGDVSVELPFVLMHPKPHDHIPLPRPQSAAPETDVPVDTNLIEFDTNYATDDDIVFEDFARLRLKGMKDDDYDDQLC

Regarding `COc1ncc(-c2nsc(C(F)(F)F)c2COc2ccc(CCC(=O)O)c(C)c2C)s1` [Cpd 268, 3-(4-{[3-(2-Methoxy-1,3-thiazol-5-yl)-5-(trifluoromethyl)isothiazol-4-yl]methoxy}-2,3-dimethylphenyl)propanoic acid], the EC50 in test [1] was determined as 0.473 µM; in test [2], 0.445 µM.

On to `Cc1c(CCC(=O)O)ccc(OCc2c(-c3cnc(Cl)s3)nsc2C(F)(F)F)c1C` [Cpd 269, 3-(4-{[3-(2-Chloro-1,3-thiazol-5-yl)-5-(trifluoromethyl)isothiazol-4-yl]methoxy}-2,3-dimethylphenyl)propanoic acid], for which the results for the EC50 in test [1] and in test [2] were 0.194 µM and 0.676 µM, respectively.

For the compound `O=C(O)CCc1cc(F)c(OCc2c(-c3ccc(Cl)cn3)nsc2C(F)(F)F)c(F)c1` [Cpd 270, 3-(4-{[3-(5-Chloropyridin-2-yl)-5-(trifluoromethyl)isothiazol-4-yl]methoxy}-3,5-difluorophenyl)propanoic acid], the EC50 in test [1] is 0.108 µM; in test [2] it was 0.246 µM.

On to `COc1ccc(-c2nsc(C(F)(F)F)c2COc2c(F)cc(CCC(=O)O)cc2F)nc1` [Cpd 271, 3-(3,5-Difluoro-4-{[3-(5-methoxypyridin-2-yl)-5-(trifluoromethyl)isothiazol-4-yl]methoxy}phenyl)propanoic acid], for which the EC50 was found to be 0.242 µM in test [1] and 0.325 µM in test [2].

Regarding `O=C(O)CCc1cc(F)c(OCc2c(-c3ccns3)nsc2C(F)(F)F)c(F)c1` [Cpd 272, 3-(3,5-Difluoro-4-{[5-(trifluoromethyl)-3,5′-biisothiazol-4-yl]methoxy}phenyl)propanoic acid], the EC50 in test [1] came to 0.573 µM; in test [2], 0.75 µM.

As to `CCc1ccc(-c2nsc(C(F)(F)F)c2COc2c(F)cc(CCC(=O)O)cc2F)nc1` [Cpd 273, 3-(4-{[3-(5-Ethylpyridin-2-yl)-5-(trifluoromethyl)isothiazol-4-yl]methoxy}-3,5-difluorophenyl)propanoic acid], the EC50 amounted to 0.427 µM in test [1] and 0.721 µM in test [2].
